Assay results reported in publication PMC8718758, “Using Unnatural Protein Fusions to Engineer a Coenzyme Self-Sufficiency System for D-Phenyllactic Acid Biosynthesis in Escherichia coli” (Frontiers in Bioengineering and Biotechnology, 2021).

Target: T1, LfD-LDH (Limosilactobacillus fermentum, UniProt A0ABF7R291)
T1 construct: gene LAF_0632; gene cloned BamHI/XhoI in pET28a, expressed in E. coli BL21(DE3) (strain CP101); gene primers only in supplement
Experiment: enzymatic conversion of phenylpyruvate to D-phenyllactic acid
Type: biochemical
Settings: co-substrate phenylpyruvate, pH 7, 35 °C; paper says only D-LDH here, LfD-LDH inferred; enzyme purity not described

T1 sequence (A0ABF7R291 1-332): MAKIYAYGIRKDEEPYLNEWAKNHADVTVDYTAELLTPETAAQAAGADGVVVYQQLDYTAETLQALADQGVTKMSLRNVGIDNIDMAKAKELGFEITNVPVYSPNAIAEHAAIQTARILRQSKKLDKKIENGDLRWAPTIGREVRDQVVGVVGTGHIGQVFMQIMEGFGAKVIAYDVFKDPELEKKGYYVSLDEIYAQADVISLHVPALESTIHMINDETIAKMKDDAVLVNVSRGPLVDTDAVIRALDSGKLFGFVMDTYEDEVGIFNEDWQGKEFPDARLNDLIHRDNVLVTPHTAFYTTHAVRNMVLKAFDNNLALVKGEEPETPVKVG

SMILES: NC(=O)C1=CN([C@@H]2O[C@H](COP(=O)(O)OP(=O)(O)OC[C@H]3O[C@@H](n4cnc5c(N)ncnc54)[C@H](O)[C@@H]3O)[C@@H](O)[C@H]2O)C=CC1 [NADH]
- enzymatic conversion of phenylpyruvate to D-phenyllactic acid: NADH-dependent D-LDH must rely on NADH to catalyze the conversion of PPA to D-PLA
